What was measured:
Settings in all cases: incubation time: 72 h
HDQ-P1 [1] = test: normalised response (% of control), CellTiter-Glo; higher = more viable cells (100 = DMSO, 0 = benzethonium chloride kill control)
Procedure: (§1)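 DSRT, 72 h incubation, CellTox Green / CellTiter-Glo readout. Signal is normalised to DMSO and benzethonium chloride controls. Value is the normalised response at dose 3.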

SK-BR-3 = test: as above
Procedure: as §1

MDA-MB-436 [2] = test: as above
Procedure: as §1

DU-4475 [3] = test: as above
Procedure: as §1

CAL-85-1 [4] = test: as above
Procedure: as §1

MDA-MB-453 [5] = test: as above
Procedure: as §1

CAL-148 [6] = test: as above
Procedure: as §1

HCC1143 [7] = test: as above
Procedure: as §1

Hs578T [8] = test: as above
Procedure: as §1

MFM-223 [9] = test: as above
Procedure: as §1

CAL-51 [10] = test: as above
Procedure: as §1

MCF-10A [11] = test: as above
Procedure: as §1

MDA-MB-231 [12] = test: as above
Procedure: as §1

HCC1937 [13] = test: as above
Procedure: as §1

HCC1599 [14] = test: as above
Procedure: as §1

BT-549 [15] = test: as above
Procedure: as §1

BT-474 [16] = test: as above
Procedure: as §1

MDA-MB-468 [17] = test: as above
Procedure: as §1

CAL-120 [18] = test: as above
Procedure: as §1

HDQ-P1 [19] = test: normalised response (% of control), CellTox Green; higher = less cell death (100 = DMSO, 0 = benzethonium chloride kill control)
Outline: (§2)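 Two readouts were taken after 72 h: CellTox Green fluorescence (485/520 nm) first, then CellTiter-Glo luminescence after 10 min at room temperature. Breast cancer cell lines had been seeded as 20 µl suspension into 384-well plates holding compound at 5 concentrations in 10-fold steps across a compound-specific 10,000-fold range. Each value is a normalised signal at a single concentration, with plates scaled to 0.1 % DMSO (100) and a positive kill control (0).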

MDA-MB-436 [20] = test: as above
Outline: as §2

DU-4475 [21] = test: as above
Outline: as §2

CAL-85-1 [22] = test: as above
Outline: as §2

MDA-MB-453 [23] = test: as above
Outline: as §2

CAL-148 [24] = test: as above
Outline: as §2

HCC1143 [25] = test: as above
Outline: as §2

Hs578T [26] = test: as above
Outline: as §2

MFM-223 [27] = test: as above
Outline: as §2

CAL-51 [28] = test: as above
Outline: as §2

MCF-10A [29] = test: as above
Outline: as §2

MDA-MB-231 [30] = test: as above
Outline: as §2

HCC1599 [31] = test: as above
Outline: as §2

BT-549 [32] = test: as above
Outline: as §2

BT-474 [33] = test: as above
Outline: as §2

MDA-MB-468 [34] = test: as above
Outline: as §2

CAL-120 [35] = test: as above
Outline: as §2

HCC1937 [36] = test: as above
Outline: as §2

SMILES	normalised response (HDQ-P1 [1]) [%]	normalised response (SK-BR-3) [%]	normalised response (MDA-MB-436 [2]) [%]	normalised response (DU-4475 [3]) [%]	normalised response (CAL-85-1 [4]) [%]	normalised response (MDA-MB-453 [5]) [%]	normalised response (CAL-148 [6]) [%]	normalised response (HCC1143 [7]) [%]	normalised response (Hs578T [8]) [%]	normalised response (MFM-223 [9]) [%]	normalised response (CAL-51 [10]) [%]	normalised response (MCF-10A [11]) [%]	normalised response (MDA-MB-231 [12]) [%]	normalised response (HCC1937 [13]) [%]	normalised response (HCC1599 [14]) [%]	normalised response (BT-549 [15]) [%]	normalised response (BT-474 [16]) [%]	normalised response (MDA-MB-468 [17]) [%]	normalised response (CAL-120 [18]) [%]	normalised response (HDQ-P1 [19]) [%]	normalised response (MDA-MB-436 [20]) [%]	normalised response (DU-4475 [21]) [%]	normalised response (CAL-85-1 [22]) [%]	normalised response (MDA-MB-453 [23]) [%]	normalised response (CAL-148 [24]) [%]	normalised response (HCC1143 [25]) [%]	normalised response (Hs578T [26]) [%]	normalised response (MFM-223 [27]) [%]	normalised response (CAL-51 [28]) [%]	normalised response (MCF-10A [29]) [%]	normalised response (MDA-MB-231 [30]) [%]	normalised response (HCC1599 [31]) [%]	normalised response (BT-549 [32]) [%]	normalised response (BT-474 [33]) [%]	normalised response (MDA-MB-468 [34]) [%]	normalised response (CAL-120 [35]) [%]	normalised response (HCC1937 [36]) [%]
CC(C)(C)c1cc(NC(=O)Nc2ccc(-c3cn4c(n3)sc3cc(OCCN5CCOCC5)ccc34)cc2)no1 [Quizartinib] (10 nM)	101	104	109	97.9	103	101	103	104	102	105	71.4	105	108	98	89	108	109	103	108	92.7	95.2	99.3	107	93.9	108	125	107	102	89.8	106	99.1	117	104	97.6	137	94.6	
COC1=C2C[C@@H](C)C[C@H](OC)[C@H](O)[C@@H](C)/C=C(\C)[C@H](OC(N)=O)[C@@H](OC)/C=C\C=C(/C)C(=O)NC(=CC1=O)C2=O [Geldanamycin] (100 nM)	102	105	107	106	108	113	118	104	107	115	84.7	103	113	101	109	96.5	102	106	109	106		104	96.5	106	106	76.5		95.2	96	95.5	103	106	99.4	100		99.7	111
Nc1nccc(-c2c(-c3ccc(F)cc3)ncn2C2CCCCC2)n1 (100 nM)	95.2	97.3	113	101	98.9	104	105	112	104	102	84.4	105	106	102	102	98.3	99.9	96.2	105	104	81.8	107	97.7	98.8	101	100	86.7	104	94.3	110	112	98.9	93.9	103		102	78.4
O=c1[nH]c(=O)n([C@H]2C[C@H](O)[C@@H](CO)O2)cc1F [Floxuridine] (100 nM)	90.8	71.4	74.6	103	57	116	110	103	28	113	57.2	109	100	75.4	66.8	94.4	99.3	86.1	99.3		115	107	87.3	104		63.4	103	98.5	95.6	97.8	115	113	114	102	96.2	107	51.1
Cc1cc(C(C)Nc2ccccc2)c2nc(N3CCOCC3)cc(=O)n2c1 (centres undefined) [TGX-221] (100 nM)	98.7	99.7	94	95.8	99.7	93.2	100	96.4	93.9	94	65.8	93.5	92.7	88.1	113	86.5	90.1	86.4	97.2		97	99.1	114	96	81	74.4	98.5	99.2	90.6	108		95.3	92.5	89.3	52.6	105	80.5
CN(c1ccccc1CNc1nc(Nc2ccc3c(c2)CC(=O)N3)ncc1C(F)(F)F)S(C)(=O)=O (100 nM)	101	88.3	91.9	95.6	95.5	90.4	104	96.5	94.3	95.5	93.1	86.2	89.6	96.5	98.3	97.9	89.8	88.5	87.2		80.3	98.1	102	103	99.2	84.4	104	103	87.6		85.8	94	97.5	94.5	115	99.9	83.4
CCS(=O)(=O)c1cccc(-c2cc(C(=O)NC3CCN(C)CC3)c(C)c3[nH]c4ncc(C)cc4c23)c1 [TAK-901] (10 nM)	97	108	110	107	100	103	104	98.7	108	109	92.4	104	101	93.4	120	101	102	94.7	99.6	108	96	101	95.7	101	105	69		101	98.6	78.2	100	104	72.2	100	77.1	103	120
Cn1c(=O)c(F)c(Nc2ccc(I)cc2F)c2c(=O)n(C[C@@H](O)CO)cnc21 [TAK-733] (10 nM)	74.5	107	104	38.9	93.7	115	97.2	92.6	96.8	102	84.7	53.8	90.3	88	82.3	104	89.8	92.6	97.6	-40.4	114	95.9	104	112	107	118	71.8	104	104	90.9	99.2	119	105	103	113	103	
CS(=O)(=O)CCNCc1ccc(-c2ccc3ncnc(Nc4ccc(OCc5cccc(F)c5)c(Cl)c4)c3c2)o1 [Lapatinib] (10 nM)	95.7	87.1	100	106	101	105	112	103	106	109	90.1	95.5	103	99.2	97.6	105	101	99.1	107	82.1	107	101	87.4	103		109	104	105	99.4	100	76.9	103	91.8	97.8	87.9	101	90.5

Source: the supplement of paper PMC4862054
